# Columns and labels:
# LarAIp [1] = biological target: T1, LarAIp (Isosphaera pallida, UniProt E8QWZ4); assay: X-ray crystal structure, […] Å; type: binding; settings: ligand exchange with ~3 mM D/L-2HB at 55 °C 15 min, then 4 °C; active site
# T1 construct: gene Isop_3476; full length, C-terminal Strep-II tag, co-expressed with LarB, LarC and LarE in Lactococcus lactis NZ3900 (structures); apoprotein from E. coli (pBADHisA) plus in vitro-synthesized NPN for substrate assays; 47403 Da after loss of Met1; monomer
# LarAIp [2] = biological target: T1, LarAIp; assay: X-ray crystal structure, […] Å; type: binding; settings: ligand exchange at ~3 mM, 55 °C 15 min, then 4 °C; active site
# LarAIp [3] = biological target: T1, LarAIp; assay: X-ray crystal structure, […] Å; type: binding; settings: naturally bound in enzyme as purified; active site with NPN tethered to Lys183
# LarAIp [4] = biological target: T1, LarAIp; assay: competitive-substrate racemization assay, capillary electrophoresis; type: biochemical; settings: turnover only (relative kcat/KM); 100 mM Tris-HCl pH 8.0, 30 °C, 1 μM NPN
# LarAIp [5] = biological target: T1, LarAIp; assay: racemization assay, D-lactate formed measured by D/L-lactate kit; type: biochemical; settings: turnover only; conversion to D-lactate also seen in crystal
# T1 sequence (E8QWZ4 entry or part of it): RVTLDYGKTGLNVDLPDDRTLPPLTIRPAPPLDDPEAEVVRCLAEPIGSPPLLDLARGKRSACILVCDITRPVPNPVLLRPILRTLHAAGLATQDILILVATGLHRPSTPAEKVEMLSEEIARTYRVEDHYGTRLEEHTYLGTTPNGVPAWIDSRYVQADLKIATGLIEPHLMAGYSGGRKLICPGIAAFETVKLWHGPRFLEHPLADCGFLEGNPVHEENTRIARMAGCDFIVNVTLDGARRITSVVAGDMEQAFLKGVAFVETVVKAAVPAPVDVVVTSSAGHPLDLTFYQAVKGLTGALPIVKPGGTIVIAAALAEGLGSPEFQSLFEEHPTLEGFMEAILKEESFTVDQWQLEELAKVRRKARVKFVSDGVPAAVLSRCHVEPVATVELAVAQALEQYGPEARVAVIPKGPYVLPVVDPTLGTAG
smiles,measurement,setting,value
CC[C@@H](O)C(=O)O [D-2HB],"X-ray crystal structure, 1.38 Å",LarAIp [1],9EID (LarAIp with bound D-2HB)
CC(C)[C@@H](O)C(=O)O [D-2HIV],"X-ray crystal structure, 1.65 Å",LarAIp [2],9EIF (LarAIp with bound D-2HIV)
C[C@@H](O)C(=O)O [D-lactate],"X-ray crystal structure, 1.74 Å",LarAIp [3],9EIA (LarAIp with bound D-lactate as purified)
O=C(O)[C@@H](O)CO [L-glycerate],"competitive-substrate racemization assay, capillary electrophoresis",LarAIp [4],"highest kcat/KM values for L-lactate and 2-hydroxybutyrate (2HB), followed by L-glycerate"
C[C@H](O)C(=O)O [L-lactate],"racemization assay, D-lactate formed measured by D/L-lactate kit",LarAIp [5],confirmed the conversion of three L-α-hydroxyacids into the corresponding D-enantiomers

# Reference: publication PMC11851776, “Structural Basis for the Catalysis and Substrate Specificity of a LarA Racemase with a Broad Substrate Spectrum” (ACS Catalysis, 2025)
